Earlier results, collected in patent US12708634B2, “Psilocybin derived compositions and methods using same” (1242753 Ontario Inc., priority 2021, dated 2026).

What was measured:
[1] = test system: patients with advanced-stage cancer; conditions: oral dose 0.2 mg/kg
[2] = test system: patients with treatment-resistant major depression; conditions: two oral doses (10 mg followed by 25 mg a week later)

## CN(C)CCc1c[nH]c2cccc(OP(=O)(O)O)c12 [psilocybin]
[1]
  adverse events: no clinically significant adverse events
[2]
  adverse events: no clinically significant adverse events
